{"source": "paper PMC7835237", "about": "“Dual mechanism β-amino acid polymers promoting cell adhesion” (Nature Communications, 2021)", "key": {"[1]": {"test_system": "MC3T3-E1 preosteoblast cells", "test": "Cell spreading area on modified surfaces (immunofluorescence analysis of cell morphology)", "type": "cell-based, mouse", "method": "The degree of cell spreading on a functionalized glass slide was measured by immunofluorescence analysis. After culture medium was removed, the slide was washed with PBS and then cells on the slide were fixed with 4% paraformaldehyde for 20 min. The slide was washed with PBS thrice and incubated for 5 min with 0.4% triton-X in PBS. Subsequently, the slide was washed with PBS thrice, followed by blocking with 3% bovine serum albumin (BSA) in PBS for 1 h at rt and then incubated with Alexa Fluor-555-conjugated anti-vinculin antibody (1:300 in PBS) overnight at 4 °C. The slide was washed with PBS thrice and incubated for 2 h with FITC-phalloidin (1:200 in PBS) and 4′-6-diamidino-2-phenylindole (DAPI) (5 μg/mL) for 10 min. The slide was washed with PBS thrice and its fluorescent images were collected on a confocal microscope (Nikon A1R, Japan)."}, "[2]": {"test_system": "MC3T3-E1 preosteoblast cells", "test": "Integrin αvβ3 to block RGD, cell adhesion", "type": "cell-based, mouse", "set-up": "unit not given here", "settings": "for Cell density (figure 5g) / Cell spreading area (figure 5f): - αvβ3: serum-incubated surface without integrin αvβ3, 2 h after seeding; for Supplementary Figure8, cell adhesion on modified surface: - αvβ3", "method": "An aliquot of 10 μL α-MEM medium containing 10% FBS was added to each well (formed by a 50-well coverslip on the top of a glass slide) and the slide was incubated in a humidified atmosphere at 37 °C for 2 h[24]. The slide was washed with PBS and incubated with integrin αvβ3 (10 µg/mL in PBS) at 37 °C for 1 h. Then cells at a concentration of 1.5 × 10^5 cells/mL in a serum-free medium were added to each individual well, having bottom surface modified with DM50CO50 or RGD peptide. After the slide was incubated at 37 °C for 2 h, cells in each well were stained with a live/dead staining solution and the fluorescent images were captured under a microscope (Nikon Eclipse Ti-S, Japan) at eight different locations in each well. The collected images were analyzed using the Image-pro plus software."}, "[3]": {"test": "Water contact angle of modified surfaces", "type": "physicochemical", "settings": "modified glass surface, Millipore water drops", "method": "The water contact angles of bare glass, OEG8, RGD, and DM50CO50-modified surfaces were measured with a contact angle meter (JC2000D2) from Shanghai Zhongchen Digital Technology Apparatus Co., Ltd. Liquid drops (Millipore water) were delivered to the surface using a microsyringe."}}, "data": [{"substance": "RGDSPC [cell adhesion gold standard RGD peptide (RGDSPC), attached to surface]", "values": [{"measurement": "Cell area of preosteoblast cells", "setting": "[1]; cultured on modified surface for 3 h, replicate 1", "result": 3956}, {"measurement": "Cell area of preosteoblast cells", "setting": "[1]; cultured on modified surface for 3 h, replicate 2", "result": 3895}, {"measurement": "Cell area of preosteoblast cells", "setting": "[1]; cultured on modified surface for 3 h, replicate 3", "result": 3549}, {"measurement": "Cell area of preosteoblast cells", "setting": "[1]; cultured on modified surface for 24 h, replicate 1", "result": 4800}, {"measurement": "Cell area of preosteoblast cells", "setting": "[1]; cultured on modified surface for 24 h, replicate 2", "result": 4752}, {"measurement": "Cell area of preosteoblast cells", "setting": "[1]; cultured on modified surface for 24 h, replicate 3", "result": 4625}, {"measurement": "Cell density (figure 5g)", "setting": "[2]; value 1 of n = 9", "result": 80}, {"measurement": "Cell spreading area (figure 5f)", "setting": "[2]; value 1 of n = 9", "result": 3308.7}, {"measurement": "Cell density (figure 5g)", "setting": "[2]; value 2 of n = 9", "result": 69}, {"measurement": "Cell spreading area (figure 5f)", "setting": "[2]; value 2 of n = 9", "result": 3551.3}, {"measurement": "Cell density (figure 5g)", "setting": "[2]; value 3 of n = 9", "result": 74}, {"measurement": "Cell spreading area (figure 5f)", "setting": "[2]; value 3 of n = 9", "result": 2958.5}, {"measurement": "Cell density (figure 5g)", "setting": "[2]; value 4 of n = 9", "result": 75}, {"measurement": "Cell spreading area (figure 5f)", "setting": "[2]; value 4 of n = 9", "result": 3300.7}, {"measurement": "Cell density (figure 5g)", "setting": "[2]; value 5 of n = 9", "result": 69}, {"measurement": "Cell spreading area (figure 5f)", "setting": "[2]; value 5 of n = 9", "result": 3020}, {"measurement": "Cell density (figure 5g)", "setting": "[2]; value 6 of n = 9", "result": 79}, {"measurement": "Cell spreading area (figure 5f)", "setting": "[2]; value 6 of n = 9", "result": 2866.3}, {"measurement": "Cell density (figure 5g)", "setting": "[2]; value 7 of n = 9", "result": 74}, {"measurement": "Cell spreading area (figure 5f)", "setting": "[2]; value 7 of n = 9", "result": 2910.3}, {"measurement": "Cell density (figure 5g)", "setting": "[2]; value 8 of n = 9", "result": 73}, {"measurement": "Cell spreading area (figure 5f)", "setting": "[2]; value 8 of n = 9", "result": 3174.3}, {"measurement": "Cell density (figure 5g)", "setting": "[2]; value 9 of n = 9", "result": 70}, {"measurement": "Cell spreading area (figure 5f)", "setting": "[2]; value 9 of n = 9", "result": 3494.7}, {"measurement": "Supplementary Figure8, cell adhesion on modified surface", "setting": "[2]; replicate 1", "result": 0.61}, {"measurement": "Supplementary Figure8, cell adhesion on modified surface", "setting": "[2]; replicate 2", "result": 0.2888}, {"measurement": "Supplementary Figure8, cell adhesion on modified surface", "setting": "[2]; replicate 3", "result": 0.3748}, {"measurement": "Water contact angle", "setting": "[3]", "result": 41, "unit": "°"}]}]}
